Entries after “also recorded” stand apart in the source; their conditions may differ. Like-named read-outs stand apart in the source and are kept apart here.
What was measured:
[1] = Inhibition of proliferation (XTT), isogenic Ba/F3 model; format: cell-based, murine; conditions: mouse, Ba/F3 parental cells (with IL3), Ba/F3 Parental (w/ IL3)
Ba/F3 Parental (w/ IL3) [2] = experiment: as above; format: cell-based, murine
[3] = system: mononuclear cells of a bone marrow donor; experiment: XTT-based proliferation assay, donor mononuclear cells ex vivo
Procedure: Bone marrow aspirate and peripheral blood samples from consented patients with acute leukemia as well as samples from healthy blood and bone marrow donors were collected in 5000 U heparin with the approval of the ethics committee of the Medical Faculties of the University of Tübingen or the University of Ulm. Mononuclear cells were isolated by Ficoll-Hypaque density gradient fractionation. Cells were cultured in DMEM medium, supplemented with 20% fetal bovine serum (GIBCO/Invitrogen, Darmstadt, Germany or Biochrom AG, Berlin, Germany), 1% penicillin G (10,000 units/mL), and streptomycin (10,000 μg/mg) and 2 mmol/L L-glutamine.

Ba/F3 KIT D816Y [4] = experiment: Inhibition of proliferation (XTT), isogenic Ba/F3 model; format: cell-based, murine; conditions: Mus musculus
Ba/F3 FLT3 WT [5] = experiment: Induction of apoptosis, isogenic Ba/F3 model; format: cell-based, murine
Procedure: (§1) Translocation of phosphatidylserine from the inner to the outer leaflet of the plasma membrane as an early indicator of apoptosis was analyzed using an Annexin V-based assay (Immunotech, Marseilles, France) and a FACScalibur® flow cytometer loaded with CellQuest® analysis software (BD, Heidelberg, Germany).

Ba/F3 FLT3 K663Q = experiment: Induction of apoptosis, isogenic Ba/F3 model; format: cell-based, murine
Procedure: as §1

Ba/F3 FLT3 N841H = experiment: Induction of apoptosis, isogenic Ba/F3 model; format: cell-based, murine
Procedure: as §1

Ba/F3 FLT3 D835Y = experiment: Induction of apoptosis, isogenic Ba/F3 model; format: cell-based, murine
Procedure: as §1

Ba/F3 FLT3 ITD [6] = experiment: Induction of apoptosis, isogenic Ba/F3 model; format: cell-based, murine
Procedure: as §1

Ba/F3 KIT D816V [7] = experiment: Induction of apoptosis, isogenic Ba/F3 model; format: cell-based, murine
Procedure: as §1

Ba/F3 KIT D816Y [8] = experiment: Induction of apoptosis, isogenic Ba/F3 model; format: cell-based, murine
Procedure: as §1

Ba/F3 KIT D816F = experiment: Induction of apoptosis, isogenic Ba/F3 model; format: cell-based, murine
Procedure: as §1

Ba/F3 BCR/ABL1 [9] = experiment: Induction of apoptosis, isogenic Ba/F3 model; format: cell-based, murine
Procedure: as §1

Ba/F3 Parental (w/ IL3) [10] = experiment: Induction of apoptosis, isogenic Ba/F3 model; format: cell-based, murine
Procedure: as §1

[11] = system: HMC1.1, HMC1.2, GIST882 and GIST48 cells; experiment: induction of apoptosis in imatinib-resistance cell models; format: cell-based, human; conditions: HMC1.1/HMC1.2 and GIST882/GIST48; irrespective of the sensitivity profile towards TKI
Description: We tested this theory using two cell models comparing primary TK-sensitive mutations with secondary TK-insensitive mutations: The first model consists of a mast cell leukemia cell line (HMC1.1), which harbors an imatinib-sensitive KIT V560G mutation – and a derivative sister cell line (HMC1.2), which is characterized by a secondary activation loop KIT D816V mutation, rendering the cells insensitive towards imatinib. Additionally we tested the GIST solid tumor cell line GIST882 (harboring an imatinib-sensitive KIT K642E mutation) with a second cell line, which was established from a patient with relapsing GIST under imatinib therapy (GIST48). This cell line harbors a primary homozygous juxtamembrane KIT mutation (V560D) plus a secondary heterozygous imatinib-insensitive activation loop mutation (D820A).
Supplementary file 1476-4598-12-46-S3.tiff: Additional file 3: Figure S2 PI3K/MTOR inhibition in imatinib-resistance models. Dual PI3K/MTOR inhibition is effective in tyrosine kinase inhibitor-resistant cell models. […] Dose-effect plots are provided indicating sensitivity profiles of both dual PI3K/MTOR inhibitors that are independent of the sensitivity patterns for imatinib. Linear regression analyses to calculate IC50 estimates are provided for all cell lines. […]

MOLM14 cells (FLT3 ITD) = experiment: annexin V-based apoptosis assay, MOLM14; format: cell-based; conditions: Homo sapiens, MOLM-14, read-out: IC50 induction of apoptosis
Procedure: as §1

Ba/F3 FLT3 ITD [12] = experiment: Inhibition of proliferation (XTT), isogenic Ba/F3 model; format: cell-based, murine
Jurkat cells = experiment: XTT-based cellular proliferation assay, Jurkat; format: cell-based; conditions: Homo sapiens, read-out: IC50 cellular proliferation (linear regression analysis)
Ba/F3 FLT3 WT [13] = experiment: Inhibition of proliferation (XTT), isogenic Ba/F3 model; format: cell-based, murine; conditions: Mus musculus
Ba/F3 KIT D816V [14] = experiment: as above; format: cell-based, murine; conditions: Mus musculus
Ba/F3 BCR/ABL1 [15] = experiment: as above; format: cell-based, murine; conditions: Mus musculus
native leukemia blasts = experiment: Annexin V/PI apoptosis assay, native leukemia blasts treated ex vivo; format: cell-based; conditions: Homo sapiens
Procedure: as §1

[16] = BaF3, 10 nM, read-out: Inhibition of proliferation At 10 nM (% alive)
[17] = BaF3, 100 nM, read-out: Inhibition of proliferation At 100 nM (% alive)

## Cn1c(=O)n(-c2ccc(C(C)(C)C#N)cc2)c2c3cc(-c4cnc5ccccc5c4)ccc3ncc21 [NVP-BEZ235]
[1]; 10 nM, read-out: Inhibition of proliferation At 10 nM (% alive)
  viability at 0.01 µM: 89%
[1]; 100 nM, read-out: Inhibition of proliferation At 100 nM (% alive)
  viability at 0.1 µM: 98%
Ba/F3 Parental (w/ IL3) [2]; Ba/F3 Parental (w/ IL3)
  IC50: 2400 nM
Ba/F3 Parental (w/ IL3) [2]; Mus musculus, BaF3, Ba/F3 Parental (w/ IL3)
  IC50: ~2400 nM
[3]; Homo sapiens, read-out: Proliferation IC50, Pt. Nr. 552 (donor), bone marrow donor, ex vivo
  IC50: > 1000 nM
[3]; read-out: Proliferation IC50, Pt. Nr. 552 (donor), bone marrow donor, ex vivo
  IC50: 1020 nM
Ba/F3 KIT D816Y [4]; BaF3
  IC50: 72 nM
Ba/F3 KIT D816Y [4]; [16]
  viability at 0.01 µM: 64%
Ba/F3 KIT D816Y [4]; [17]
  viability at 0.1 µM: 62%
Ba/F3 FLT3 WT [5]; 1000 nM
  Induction of apoptosis At 1000 nM (% apopt.): 38%
Ba/F3 FLT3 WT [5]; 5000 nM
  Induction of apoptosis At 5000 nM (% apopt.): 40%
Ba/F3 FLT3 WT [5]; Mus musculus, BaF3
  IC50: 8300 nM
Ba/F3 FLT3 K663Q; 1000 nM
  Induction of apoptosis At 1000 nM (% apopt.): 17%
Ba/F3 FLT3 K663Q; 5000 nM
  Induction of apoptosis At 5000 nM (% apopt.): 16%
Ba/F3 FLT3 K663Q; not reached = > 5 000 nM
  Induction of apoptosis IC50: Not reached
Ba/F3 FLT3 N841H; 1000 nM
  Induction of apoptosis At 1000 nM (% apopt.): 19%
Ba/F3 FLT3 N841H; 5000 nM
  Induction of apoptosis At 5000 nM (% apopt.): 22%
Ba/F3 FLT3 N841H; not reached = > 5 000 nM
  Induction of apoptosis IC50: Not reached
Ba/F3 FLT3 D835Y; 1000 nM
  Induction of apoptosis At 1000 nM (% apopt.): 19%
Ba/F3 FLT3 D835Y; 5000 nM
  Induction of apoptosis At 5000 nM (% apopt.): 28%
Ba/F3 FLT3 D835Y; not reached = > 5 000 nM
  Induction of apoptosis IC50: Not reached
Ba/F3 FLT3 ITD [6]; 1000 nM
  Induction of apoptosis At 1000 nM (% apopt.): 19%
Ba/F3 FLT3 ITD [6]; 5000 nM
  Induction of apoptosis At 5000 nM (% apopt.): 27%
Ba/F3 FLT3 ITD [6]; Mus musculus, not reached = > 5 000 nM
  IC50: > 10000 nM
Ba/F3 KIT D816V [7]; 1000 nM
  Induction of apoptosis At 1000 nM (% apopt.): 4%
Ba/F3 KIT D816V [7]; 5000 nM
  Induction of apoptosis At 5000 nM (% apopt.): 23%
Ba/F3 KIT D816V [7]; not reached = > 5 000 nM
  Induction of apoptosis IC50: Not reached
Ba/F3 KIT D816Y [8]; 1000 nM
  Induction of apoptosis At 1000 nM (% apopt.): 5%
Ba/F3 KIT D816Y [8]; 5000 nM
  Induction of apoptosis At 5000 nM (% apopt.): 73%
Ba/F3 KIT D816Y [8]; Mus musculus, BaF3
  IC50: 1360 nM
Ba/F3 KIT D816F; 1000 nM
  Induction of apoptosis At 1000 nM (% apopt.): 40%
Ba/F3 KIT D816F; 5000 nM
  Induction of apoptosis At 5000 nM (% apopt.): 87%
Ba/F3 KIT D816F; Mus musculus, BaF3
  IC50: 1240 nM
Ba/F3 BCR/ABL1 [9]; 1000 nM
  Induction of apoptosis At 1000 nM (% apopt.): 38%
Ba/F3 BCR/ABL1 [9]; 5000 nM
  Induction of apoptosis At 5000 nM (% apopt.): 39%
Ba/F3 BCR/ABL1 [9]; not reached = > 5 000 nM
  Induction of apoptosis IC50: failed to achieve IC50; also recorded: Not reached
Ba/F3 Parental (w/ IL3) [10]; 1000 nM
  Induction of apoptosis At 1000 nM (% apopt.): 3%
Ba/F3 Parental (w/ IL3) [10]; 5000 nM
  Induction of apoptosis At 5000 nM (% apopt.): 6%
Ba/F3 Parental (w/ IL3) [10]; not reached = > 5 000 nM
  Induction of apoptosis IC50: Not reached*
[11]
  induction of apoptosis: potently induced apoptosis
MOLM14 cells (FLT3 ITD)
  IC50: > 10000 nM
Ba/F3 FLT3 ITD [12]
  IC50: 7 nM
Ba/F3 FLT3 ITD [12]; Mus musculus, 10 nM, read-out: Inhibition of proliferation At 10 nM (% alive)
  viability at 0.01 µM: 13%
Ba/F3 FLT3 ITD [12]; Mus musculus, 100 nM, read-out: Inhibition of proliferation At 100 nM (% alive)
  viability at 0.1 µM: 4%
Ba/F3 FLT3 ITD [12]; Mus musculus, Ba/F3 FLT3-ITD
  IC50: < 10 nM
Jurkat cells
  IC50: 50 nM
Ba/F3 FLT3 WT [13]; BaF3
  IC50: 7 nM
Ba/F3 FLT3 WT [13]; [16]
  viability at 0.01 µM: 33%
Ba/F3 FLT3 WT [13]; [17]
  viability at 0.1 µM: 28%
Ba/F3 KIT D816V [14]; BaF3
  IC50: 8 nM
Ba/F3 KIT D816V [14]; [16]
  viability at 0.01 µM: 40%
Ba/F3 KIT D816V [14]; [17]
  viability at 0.1 µM: 38%
Ba/F3 BCR/ABL1 [15]; BaF3
  IC50: 131 nM
Ba/F3 BCR/ABL1 [15]; [16]
  viability at 0.01 µM: 58%
Ba/F3 BCR/ABL1 [15]; [17]
  viability at 0.1 µM: 50%
Native leukemia blasts; Pt. Nr. 290, ex vivo
  IC50: 71 nM
Native leukemia blasts; Pt. Nr. 368, ex vivo
  IC50: 3180 nM
Native leukemia blasts; Pt. Nr. 527, ex vivo
  IC50: 6820 nM
Native leukemia blasts; Pt. Nr. 528, ex vivo
  IC50: 371 nM
Native leukemia blasts; Pt. Nr. 532, ex vivo
  IC50: 653 nM

From article PMC3689638, “Cell cycle-dependent activity of the novel dual PI3K-MTORC1/2 inhibitor NVP-BGT226 in acute leukemia” (Molecular Cancer, 2013)
